Data set [1] concerns serum lipid oxidation (TBARS). In words: TBARS assay: copper-induced oxidation of serum lipids from treated rabbits. It counts as in vivo, rabbit (New Zealand White, female). Particulars: CuSO4 37° C. 5 hr, diet I 0.15%*, II and III 0.40%. Here is the method:
(§1) Female New Zealand White rabbits (Hazelton, ~2.0-2.3 kg) were fed 0.5% cholesterol/10% corn oil enriched rabbit chow (Purina # 5322) with or without test compound. The experiment was conducted for 70 days. The test compounds were solubilized in 100% ethanol and sprayed on the chow; control chows were sprayed with ethanol. The chows were dried overnight in a chemical fume hood. Rabbits were fed 100 grams food per day; water was available ad libitum. On the last day of the study rabbits (fasted overnight) were bled (~2 mL) from a marginal ear vein periodically to monitor serum cholesterol levels. The rabbits were euthanized on day 70 by carbon dioxide overdose. The total body and liver weights were recorded in grams. Food consumption was recorded as grams.cndot.day^-1. Aliquots of fresh serum were used for clinical chemistries and copper induced thiobarbituric acid reactive substances (TBARS). Aliquots of serum and livers (~5 gram) were frozen at -20° C. for compound and metabolite concentration determination at a later time.
TBARS are a […] indication of the oxidation of lipids in a sample. Mao, S J T et al. Meth. of Enzymol. 234, 517-525 (1994). In this assay copper sulfate was used to initiate the oxidation serum lipids, resulting in the formation of aldehydes, such as malondialdehyde (MDA). Upon incubation with thiobarbituric acid, the absorbance of the aldehydes was detected at 530-540 nm. TBARS values which are lower than control serum values indicate the relative ability of a test compound to inhibit the oxidation. TBARS were measured as follows: 50 μL of serum were mixed with 50 μL of 0.9% saline and 400 μL of a 5 mmol CuSO4 solution and incubated at 37° C. for 5 hr. The reactions were stopped by addition of 1.0 mL of 20% trichloroacetic acid. […] Absorbances were measured at 540 nm using a Biotek model EL311 microplate reader. The nmoles of MDA produced were calculated from a standard curve of 0 to 10 nmoles of MDA prepared from malonaldehyde bis(dimethyacetal). […]
TBARS = thiobarbituric acid reactive substances, expressed as nmole MDA

For data set [2], the system named is cholesterol-fed female New Zealand White rabbits (aortic lesions). Description: Antiatherosclerotic effect: aorta staining (Sudan IV) and lesion quantitation in cholesterol-fed female New Zealand White rabbits. It counts as in vivo, rabbit (New Zealand White. Particulars: for Aortic Lesion % of Area, Abdom. (abdominal), as a percent of control: abdominal aorta; for Aortic Lesion % of Area, Abdom. (abdominal), as a percent of control / Aortic Lesion % of Area, Arch, as a percent of control / Aortic Lesion % of Area, Thor. (thoracic), as a percent of control / Aortic Lesion % of Area, Total, as a percent of control: 70 days, diet I 0.15%*, II and III 0.40%; for reduction of total aortic lesions: average, vs control rabbits, 0.15% for Compound I compared to 0.4% for Compound III; for Aortic Lesion % of Area, Thor. (thoracic), as a percent of control: thoracic aorta; for Aortic Lesion % of Area, Total, as a percent of control: total surface area of aorta. Here is the method:
as §1
The aortas were dissected from rabbits immediately after they were killed. The aorta from the ascending arch to the iliac bifurcation was excised after debridement of extraneous adipose tissue. Aortas were stored overnight in phosphate buffered saline (PBS)/0.02% sodium azide, pH 7.4, at 4° C. until final debridement. Before staining, aortas were cut open longitudinally and stained with Sudan IV as follows. Sudan IV stain (5.0 g) was added to 500 mL of 70% ethanol, 500 mL of acetone were added, and the solution was stirred overnight at room temperature. The solution was filtered through Whatman #1 filter paper. Aortas were rinsed with 70% ethanol for 10 minutes. They were stained with Sudan IV for 60 min at room temperature, rinsed with 70% ethanol for 5-10 min, and stored in deionized water overnight at 4° C. They were stored in PBS/0.02% sodium azide at 4° C. until imaging could be completed.
The areas containing sudanophilic lesions were quantitated as follows. Aortas were pinned flat onto black plastic sheets, illuminated with several fiber optic light sources, and photographed with a KODAK DCS-420 digital camera mounted on a copy stand. Images were captured and converted to 24 bit color TIFFs with Image Pals image editor software. The resulting images were rescaled to 1024×683 pixels to permit input into the Simple image analysis system and transferred to optical disk storage media. The Simple software was programmed to allow a region of interest to be drawn around the section of the aorta (arch, thoracic, abdominal) which separated the image of the aorta from the pins and the background. the program determined the tissue area in pixels based on pre-selected thresholds of hue, saturation, and intensity. These thresholds were adjusted to recognize the lesion area, and the percent fraction (# lesion pixels/# tissue pixels) was determined. This process was repeated on each portion of the aorta for each rabbit.
(§2) % Control = (Mean, treated group / Mean, control group) × (100)
Total = % area of total surface area of aorta covered with lesions
Arch, Thoracic, Abdominal = % area of each segments of the aorta

Data set [3] has as its system serum cholesterol and triglycerides. Description: Clinical chemistries: serum total cholesterol and triglycerides in cholesterol-fed rabbits. It counts as in vivo, rabbit (New Zealand White, female). The following applies: for TRIG (triglycerides) as a percent of control / chol tot. (total cholesterol) as a percent of control: serum, 70 days, diet I 0.15%*, II and III 0.40%; for increase of triglycerides: vs control rabbits. Here is the method:
as §1
Blood was allowed to clot at room temperature for 30 minutes. Serum was obtained after centrifugation for 10 min at 5° C. at 3000 rpm in a Beckman GPKR centrifuge with a GH 3.7 rotor. Fresh serum was analyzed by a COBA MIRA S autoanalyzer (Roche Diagnostics) using Roche diagnostic reagents for total cholesterol (CHOL, kit # 44334) and triglyceride (TG, kit # 44120). Cholesterol and triglycerides were calculated as mg/dL.
as §2
CHOL = total cholesterol mg/dL
TRIG = triglycerides, mg/dL

The nature of data set [4]: Body weight and liver weight/body weight in cholesterol-fed rabbits. It counts as in vivo, rabbit (New Zealand White, female). The following applies: II and III 0.40%; for body wt. as a percent of control: 70 days in 0.5% cholesterol/10% corn oil chow, diet I 0.15% (0.4% × 7 days, 0% × 7 days, then 0.15% × 56 days); for lw/bw (liver weight / body weight) as a percent of control: 70 days, diet I 0.15%*. The procedure:
as §1, §2
Body wt. = weight in kilograms
liver wt. = weight in kilograms
LW/BW = (liver weight / body weight)

Data set [5] in a line: HPLC quantitation of serum and liver compound and metabolite concentration. It counts as in vivo, rabbit (New Zealand White, female). Particulars: for concentration at 1680 h: rabbit, po; for Serum Parent: parent compound concentration: 100800 min. Here is the method: as §1
Serum and liver concentrations of parent compounds and the metabolites, bisphenol and diphenoquinone, were determined by reverse phase HPLC using a Waters 990 Powerline system. Mao, S. J. T. et al., Meth. of Enzymol. 234, 517-525 (1994); Satoni, D. K. and Coutant, J. E., J. Chrom. 380, 401-406 (1986). Livers (1 gram) were homogenized with 5.0 mL PBS, pH 7.4, using a Polytron tissue homogenizer at setting 5 for 20-30 seconds. Serum or liver homogenates were extracted as follows: 100 μL of serum or homogenate were added to 2.0 mL diethyl ether: ethanol (3:1) while vortexing the tube. The sample tubes were capped and centrifuged for 10 min at 5° C. at 3500 rpm in a Beckman GPKR centrifuge with a GH 3.7 rotor. The supernatants were transferred to clean tubes and dried under N2. Samples were reconstituted with 200 μL of acetonitrile:hexane:0.1 M ammonium acetate (90:6.5:3.5, by vol.). Then, 100 μL were injected onto a Waters Deltapak C18-300 Å column, and eluted with an 83% acetonitrile: 17% water mobile phase at a flow rate of 1.5 mL/min. Absorbances at the wavelengths of 240, 254, and 420 nm were recorded. Compound concentrations were calculated from known quantities of authentic parent compounds after correction for recovery; the range of recovery from spiked samples was 40 to 100%. The lowest detectable limit for this class of compounds was ~0.5 μg/mL. Concentrations were calculated as of μg/mL serum and of […].
Sample compound concentrations in serum and liver are presented as
μg/mL or μg/g, respectively.
Serum Parent = parent compound concentration as μg/mL of serum
Serum Bis = bisphenol concentration as μg/mL of serum
Serum Quin = diphenoquinone concentration as […]
Liver Parent = parent compound concentration as μg/g liver
Liver Bis = bisphenol concentration as μg/g liver
Liver Quin = diphenoquinone concentration as μg/g liver
0 = value less than detectable limit of HPLC system

[6] abbreviates: liver, diet I 0.15%*, II and III 0.40%, read-out: Liver Parent: parent compound concentration.
The mark [7] stands for this setting: liver, read-out: concentration of parent compound in livers.
Where [8] appears, read: serum, diet I 0.15% (0.4% × 7 days, 0% × 7 days, then 0.15% × 56 days), II and III 0.40%, read-out: Serum Parent: parent compound concentration.
Where [9] appears, read: serum, diet I 0.15% (0.4% × 7 days, 0% × 7 days, then 0.15% × 56 days), II and III 0.40%.

Where two headings read alike, the source gives them in different places.

In the case of `COc1ccc([Si](C)(C)COc2cc(C(C)(C)C)c(O)c(C(C)(C)C)c2)cc1` [Compound I, 2,6-Di-t-butyl-4-[(dimethyl-4-methoxyphenylsilyl)methyloxy]phenol], the “TBARS (nmole MDA) as a percent of control” value in data set [1] stood at 56%. Also, in data set [2], the “Aortic Lesion % of Area, Abdom. (abdominal), as a percent of control” value is 10%; the “Aortic Lesion % of Area, Arch, as a percent of control” value is reported as 5%; the “reduction of total aortic lesions” value turned out to be 96%; the “Aortic Lesion % of Area, Thor. (thoracic), as a percent of control” value was 3%. Moreover, the “Aortic Lesion % of Area, Total, as a percent of control” value in data set [2] was 4%. Also, in data set [3], the “TRIG (triglycerides) as a percent of control” value (“TRIG … as a percent of control” below) worked out at 22%, the “chol tot. (total cholesterol) as a percent of control” value is 28% and the “increase of triglycerides” value is listed as “did not show an undesirable increase of triglycerides”. For the same molecule, in data set [4], the “body wt. as a percent of control” value is recorded as 95% and the “lw/bw (liver weight / body weight) as a percent of control” value came to 89%. For the same molecule, in data set [5] (setting [6]), the concentration at 1680 h was found to be 44900 ng/g. Moreover, in data set [5] (setting [7]), the concentration at 1680 h came out at 44.9 µg/mL. Also, the concentration at 1680 h in data set [5] (setting [8]) stood at 7.3 µg/mL. Besides, in data set [5], the “bisphenol and diphenoquinone metabolites in serum and livers” value (from here on “bisphenol and diphenoquinone metabolites”) was “none of the bisphenol and diphenoquinone metabolites of Compounds I or II were detected in either serum or livers”. Also, the “Serum Parent: parent compound concentration” value (“Serum Parent” for short) in data set [5] (setting [9]) was found to be 7.3 µg/mL.
On to `COc1ccccc1[Si](C)(C)COc1cc(C(C)(C)C)c(O)c(C(C)(C)C)c1` [Compound II, 2,6-di-t-butyl-4-[(dimethyl-2-methoxyphenylsilyl)methyloxy]phenol], for which the “TBARS (nmole MDA) as a percent of control” value in data set [1] was found to be 90%. In addition, in data set [2], the “Aortic Lesion % of Area, Abdom. (abdominal), as a percent of control” value was 50%; the “Aortic Lesion % of Area, Arch, as a percent of control” value is given as 56%; the “Aortic Lesion % of Area, Thor. (thoracic), as a percent of control” value was 44%; the “Aortic Lesion % of Area, Total, as a percent of control” value amounted to 55%. In data set [3], the “TRIG … as a percent of control” value turned out to be 100%, the “chol tot. (total cholesterol) as a percent of control” value was determined as 79% and the “increase of triglycerides” value was “did not show an undesirable increase of triglycerides”. In data set [4], the “body wt. as a percent of control” value amounted to 98% and the “lw/bw (liver weight / body weight) as a percent of control” value was 86%. Also, the concentration at 1680 h in data set [5] (setting [6]) turned out to be 80900 ng/g. Besides, in data set [5] (setting [7]), the concentration at 1680 h worked out at 80.9 µg/mL. Further, in data set [5] (setting [8]), the concentration at 1680 h came out at 93.3 µg/mL. The “bisphenol and diphenoquinone metabolites” value in data set [5] was “none of the bisphenol and diphenoquinone metabolites of Compounds I or II were detected in either serum or livers”. For the same molecule, in data set [5] (setting [9]), the “Serum Parent” value was 93.3 µg/mL.
As for `CC(C)(C)c1cc(SC[Si](C)(C)c2ccccc2)cc(C(C)(C)C)c1O` [Compound III, 2,6-di-t-butyl-4-[(dimethylphenylsilyl)methylthio]phenol, reference compound], the “TBARS (nmole MDA) as a percent of control” value in data set [1] was 18%. For the same molecule, in data set [2], the “Aortic Lesion % of Area, Abdom. (abdominal), as a percent of control” value came to 30%; the “Aortic Lesion % of Area, Arch, as a percent of control” value turned out to be 50%; the “reduction of total aortic lesions” value is given as 57%; the “Aortic Lesion % of Area, Thor. (thoracic), as a percent of control” value was found to be 30%. For the same molecule, the “Aortic Lesion % of Area, Total, as a percent of control” value in data set [2] was found to be 43%. In data set [3], the “TRIG … as a percent of control” value was determined as 783% and the “chol tot. (total cholesterol) as a percent of control” value was found to be 64%. In data set [4], the “body wt. as a percent of control” value worked out at 89% and the “lw/bw (liver weight / body weight) as a percent of control” value came to 98%. Also, the concentration at 1680 h in data set [5] (setting [6]) is 323000 ng/g. In addition, the concentration at 1680 h in data set [5] (setting [7]) amounted to 323 µg/mL. In addition, in data set [5] (setting [8]), the concentration at 1680 h is 182 µg/mL. The “bisphenol and diphenoquinone metabolites” value in data set [5] was “undesirably high concentrations in both serum and livers”. Also, the “Serum Parent” value in data set [5] (setting [9]) is 182.4 µg/mL.

(Values after patent US6133467A, “2,6-di-t-butyl-4-[(dimethyl-4-methoxyphenylsilyl)-methyl-oxy]phenol and 2,6-di-t-butyl-4-[(dimethyl-2-methoxy-phenylsilyl)methyloxy]phenol” (Hoechst Marion Roussel, Inc., priority 1998, dated 2000).)
